Data taken from patent US6362369B1, “Phthalic acid diamide derivatives fluorine-containing aniline compounds as starting material, agricultural and horticultural insecticides, and a method for application of the insecticides” (Nihon Nohyaku Co., Ltd., priority 1997, dated 2002).

Assays:
Assay type in all cases: in vivo
[1] = system: common cutworm (Spodoptera Litura); assay: Insecticidal effect on common cutworm (Test Example 2); conditions: 500 ppm; cabbage leaf immersed; second-instar larvae of common cutworm; eight days after inoculation; 25° C.
How it was run: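 After the treated material air-dries, it goes into a dish, second-instar larvae are added, and the dish is closed. Incubation runs at 25° C. On day eight, dead and living larvae are scored, and the calculated mortality is rated on an effect scale.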

[2] = system: diamondback moth (Plutella xylostella); assay: Insecticidal effect on diamondback moth (Test Example 1); conditions: diamondback moth; judged by the mortality criterion of Test Example 1
How it was run: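 Chinese cabbage seedlings carrying eggs laid by released adult moths were immersed in treatment, air-dried and held at 25° C. Hatched insects were counted six days after immersion, and mortality was calculated and scored against a fixed criterion. Three replicate groups of 10 insects were used.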

[3] = system: rice leafroller (Cnaphalocrocis medinalis); assay: Insecticidal effect on rice leafroller (Test Example 3); conditions: 500 ppm; rice lamina immersed; third-instar larvae of rice leafroller; four days after inoculation; 25° C., humidity 70%
How it was run: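 Groups of 10 third-instar larvae, in triplicate, are placed on air-dried lamina resting on wet filter paper. Incubation runs four days at 25° C with 70% humidity before survivors and dead are tallied.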

Compound	Insecticidal effect, Test Example 2 [1]	Insecticidal effect, Test Example 1 [2]	Insecticidal effect, Test Example 3 [3]
Cc1cc(C(F)(C(F)(F)F)C(F)(F)F)ccc1NC(=O)c1cccc(I)c1C(=O)NC(C)C [compound 374]	A (100)	A (100)	A (100)
Cc1cc(C(F)(F)C(F)(F)C(F)(F)C(F)(F)F)ccc1NC(=O)c1cccc(I)c1C(=O)NC(C)C [compound 375]	A (100)	A (100)	A (100)
COc1ccc(NC(=O)c2cccc(I)c2C(=O)NC(C)C)c(C)c1C [compound 378]	D (79-50)	A (100)	A (100)
Cc1cc(OCC(F)(F)F)ccc1NC(=O)c1cccc(I)c1C(=O)NC(C)C [compound 379]	A (100)	A (100)	A (100)
Cc1cc(OC(F)(F)C(F)(F)Br)ccc1NC(=O)c1cccc(I)c1C(=O)NC(C)C [compound 380]	A (100)	A (100)	A (100)
Cc1cc(OC(F)(F)C(F)(Cl)Cl)ccc1NC(=O)c1cccc(I)c1C(=O)NC(C)C [compound 381]	A (100)	A (100)	A (100)
CC(C)NC(=O)c1c(I)cccc1C(=O)Nc1ccc(OC(F)F)c(F)c1 [compound 382]	B (99-90)	A (100)	A (100)
CC(C)NC(=O)c1c(I)cccc1C(=O)Nc1ccc(OC(F)F)c(OC(F)F)c1 [compound 385]	B (99-90)	A (100)	A (100)
Cc1cc(OC(F)(F)F)ccc1NC(=O)c1cccc(I)c1C(=O)NC(C)C [compound 386]	A (100)	A (100)	A (100)
Cc1cc(OC(F)F)ccc1NC(=O)c1cccc(I)c1C(=O)NC(C)C [compound 387, N^1-(4-difluoromethoxy-2-methylphenyl)-3-iodo-N^2-isopropylphthalic acid diamide]	A (100)	A (100)	A (100)
Cc1cc(OCC(F)(F)C(F)F)ccc1NC(=O)c1cccc(I)c1C(=O)NC(C)C [compound 388]	A (100)	A (100)	B (99-90)
Cc1cc(OC(F)(F)Br)ccc1NC(=O)c1cccc(I)c1C(=O)NC(C)C [compound 389]	A (100)	A (100)	A (100)
Cc1cc(OC(F)(F)C(F)F)ccc1NC(=O)c1cccc(I)c1C(=O)NC(C)C [compound 390]	A (100)	A (100)	A (100)
Cc1cc(OC(F)(F)C(F)F)c(Cl)cc1NC(=O)c1cccc(I)c1C(=O)NC(C)C [compound 391]	A (100)	A (100)	A (100)
Cc1cc(OC(F)(F)C(F)Cl)ccc1NC(=O)c1cccc(I)c1C(=O)NC(C)C (stereo not drawn) [compound 392]	A (100)	A (100)	A (100)
Cc1cc(OC(F)(F)C(F)C(F)(F)F)ccc1NC(=O)c1cccc(I)c1C(=O)NC(C)C (stereo not drawn) [compound 393]	A (100)	A (100)	A (100)
Cc1cc(OC(F)(F)C(F)(Br)C(F)(F)F)ccc1NC(=O)c1cccc(I)c1C(=O)NC(C)C (stereo not drawn) [compound 394]	A (100)	A (100)	A (100)
Cc1cc(OC(F)(F)C(F)OC(F)(F)F)ccc1NC(=O)c1cccc(I)c1C(=O)NC(C)C (stereo not drawn) [compound 395]	A (100)	A (100)	A (100)
Cc1cc(OC(F)F)c(Cl)cc1NC(=O)c1cccc(I)c1C(=O)NC(C)C [compound 396]	A (100)	A (100)	A (100)
Cc1cc(Oc2c(F)c(F)c(F)c(F)c2F)ccc1NC(=O)c1cccc(I)c1C(=O)NC(C)C [compound 397]	A (100)	A (100)	A (100)

Compound	Insecticidal effect, Test Example 2 [1]	Insecticidal effect, Test Example 1 [2]	Insecticidal effect, Test Example 3 [3]
Cc1cc(Oc2ccc(C(F)(F)F)cn2)ccc1NC(=O)c1cccc(I)c1C(=O)NC(C)C [compound 399]	A (100)	A (100)	A (100)
Cc1cc(Oc2ncc(C(F)(F)F)cc2Cl)ccc1NC(=O)c1cccc(I)c1C(=O)NC(C)C [compound 400]	D (79-50)	A (100)	A (100)
Cc1cc(SC(F)(F)C(F)(F)C(F)(F)F)ccc1NC(=O)c1cccc(I)c1C(=O)NC(C)C [compound 403]	B (99-90)	A (100)	A (100)
Cc1cc(Sc2ccc(Cl)cc2)ccc1NC(=O)c1cccc(I)c1C(=O)NC(C)C [compound 404]	A (100)	A (100)	A (100)
CC(C)NC(=O)c1c(I)cccc1C(=O)Nc1ccc(OC(F)(F)F)cc1Br [compound 406]	A (100)	A (100)	A (100)
CC(C)NC(=O)c1c(I)cccc1C(=O)Nc1ccc(C(F)(F)C(F)(F)C(F)(F)F)cc1Cl [compound 407]	A (100)	A (100)	A (100)
CC(C)NC(=O)c1c(I)cccc1C(=O)Nc1ccc(OC(F)(F)F)cc1Cl [compound 408]	B (99-90)	A (100)	A (100)
CC(C)NC(=O)c1c(I)cccc1C(=O)Nc1ccc(OC(F)F)cc1C(F)(F)F [compound 409]	A (100)	A (100)	A (100)
CC(C)NC(=O)c1c(I)cccc1C(=O)Nc1ccc(OC(F)F)c(C(F)(F)F)c1 [compound 410]	A (100)	A (100)	A (100)
CC(C)NC(=O)c1cccc(I)c1C(=O)Nc1ccc(C(F)(C(F)(F)F)C(F)(F)F)cc1 [compound 416]	A (100)	A (100)	A (100)
CC(C)NC(=O)c1cccc(I)c1C(=O)Nc1ccc(C(F)(F)C(F)(F)C(F)(F)F)cc1 [compound 417]	A (100)	A (100)	A (100)
CC(C)NC(=O)c1cccc(I)c1C(=O)Nc1ccc(OC(F)(F)C(F)OC(F)(F)C(F)(F)C(F)(F)F)cc1 (stereo not drawn) [compound 419]	A (100)	A (100)	A (100)
CC(C)NC(=O)c1cccc(I)c1C(=O)Nc1ccc(SC(F)F)cc1 [compound 421]	B (99-90)	A (100)	A (100)
Cc1cc(Br)ccc1NC(=O)c1c(I)cccc1C(=O)NC(C)C [compound 430]	D (79-50)	A (100)	D (79-50)
Cc1c(NC(=O)c2c(I)cccc2C(=O)NC(C)C)cccc1C(F)(F)F [compound 435]	B (99-90)	A (100)	A (100)
Cc1cc(C(F)(F)F)ccc1NC(=O)c1c(I)cccc1C(=O)NC(C)C [compound 436]	B (99-90)	A (100)	A (100)
Cc1cc(C(F)(F)C(F)(F)F)ccc1NC(=O)c1c(I)cccc1C(=O)NC(C)C [compound 437]	C (89-80)	A (100)	A (100)
Cc1cc(C(F)(F)C(F)(F)C(F)(F)F)ccc1NC(=O)c1c(I)cccc1C(=O)NC(C)C [compound 438]	B (99-90)	A (100)	A (100)
Cc1cc(C(F)(C(F)(F)F)C(F)(F)F)ccc1NC(=O)c1c(I)cccc1C(=O)NC(C)C [compound 439]	A (100)	A (100)	A (100)
Cc1cc(C(F)(F)C(F)(F)C(F)(F)C(F)(F)F)ccc1NC(=O)c1c(I)cccc1C(=O)NC(C)C [compound 440]	C (89-80)	A (100)	B (99-90)
